In the oligonucleotide strings, read from the 5' end, every base follows the letter of its sugar. An asterisk marks phosphorothioate; unmarked linkages are phosphodiester. Other units and linkages are bracketed, terminal groups are in braces. A string of capitals states the bases alone. d = 2'-deoxy (DNA)
What was measured:
[1] = system: human preadipocyte; assay: Adipocyte proliferation and differentiation, neutral fat accumulation (Adipo Red); assay type: cell-based
Experimental: The differentiation medium was prepared by adding supplement kit PGM SingleQuots, #PT-9500, Lot.08101163 (Sanko Junyaku Co., Ltd.) to 100 mL of growth medium. 50 μL of the supernatant was removed from the 96 well plate prepared in Example 12, and 50 μL of the siRNA or the antisense oligonucleotide prepared in the differentiation medium was added, and incubation was conducted in a CO2 incubator for 5 days to 15 days.
The amount of neutral fat accumulated in the adipocyte was determined by fluorometry using Adipo Red stain.
After taking the 96 well plate out of the CO2 incubator, the plate was allowed to stand until it cooled to room temperature. The plate was centrifuged at 300 g (1200 rpm) for 10 minutes at room temperature to remove the medium. Next, the plate was gently washed with 200 μL/well of PBS (Sigma), and 200 μL/well of PBS was added to the well.
Next, 5 μL/well of Adipo Red Assay Reagent (Adipo Red, Cat. #PT-7009, Lot.3F0497, A Cambrex Company) was added, and the plate was allowed to stand at room temperature for at least 10 minutes to thereby stain the neutral fat that had accumulated in the adipocyte. The fluorescence intensity was measured in a fluorometer at an excitation wavelength of 485 nm and an emission wavelength of 535 nm to thereby determine the fat accumulation.
(§1) According to the method of Example 15, M82463 was added to the human preadipocyte incubation system at a concentration of 0.3 to 10 μg/mL so that the final concentration of the DMSO was 0.2%. As a control, a group having only the DMSO added to a final concentration of 0.2% was used.
After preparation of the antibody to the concentration of 0.100 mg/mL with physiological saline, 9 volumes of adipocyte differentiation medium was added to 1 volume of the antibody solution, and the solution was sterilized by filtering through a filter having a diameter of 0.22 μm (MILLEX-GV 0.22 μm Filter unit, 3slgv013SL, Lot. R2NN83622, MILLIPORE). […]

[2] = system: meltrin α mRNA; assay: Quantitative determination of human meltrin α expression in human preadipocyte (real time PCR); assay type: cell-based; details: antisense DNA transfected human preadipocyte; sense oligo DNA group = 100%
Experimental: First, the human preadipocyte for use in the assay (human preadipocytes-sq donor10547, POIETICS #PT-5001, Lot.3F0242, Sanko Junyaku Co., Ltd.) which had been adjusted to a cell concentration of 1×10^5 cells/mL was added to a 96 well culture plate at 1×10^2 to 1×10^4 cells/well/100 μL, and cultured overnight. In the meanwhile, the culture medium in which preadipocytes had been suspended at 1×10^5 cells/mL was added to a 6 well plate at 1600 μL/well, and growth medium was also added to the plate at 400 μL/well, and the cells were cultured overnight. 1 μg to 50 μg of synthetic oligo DNA was added to serum free adipocyte growth medium or serum. free D-MEM, and after adding 3 μL of FuGENE6 per 1 μg of oligo DNA, the mediums were allowed to stand at room temperature for 15 to 45 minutes. From the 6 well plate described above, 400 μL/well of the medium was removed and 400 μL/well of the culture medium containing the oligo DNA was added, and the plate was incubated at 37° C. for 18 hours in the presence of 5% CO2 to evaluate the level of expression of meltrin in Example 15. […]
After removing PBS from the plate, 0.5 mL/well of Trizol Reagent (Invitrogen) was added to the plate. […] After drying, the precipitate was dissolved in water not containing RNase, and absorbance at a wavelength of 260 nm was measured to determine the RNA concentration (1OD=40 μg/mL). […]

[3] = system: adipocyte; assay: Toxicity for the adipocyte (WST1 assay); assay type: cell-based, human; details: at the concentration used in the assay (0.3 to 10 μg/mL)
Experimental: Toxicity of the test substance to the adipocyte was examined by WST1 assay. More specifically, Premix WST-1 Cell Proliferation Assay System (Takara Shuzo Co., Ltd.) was added at 10 μL/well, and after incubating at 37° C. for 60 minutes in a CO2 incubator, absorbance (450 nm-650 nm) was measured to examine influence on the adipocyte.
as §1

[4] = target: T1, meltrin α (Homo sapiens, UniProt O43184, E208G/T209S); assay: Inhibition of protease activity of meltrin α (rhIGF-BP3 cleavage, western blotting); assay type: biochemical; details: low molecular weight compound 10 μg/mL; rhIGF-BP3 band
T1 construct: had been converted to mature meltrin α having the prodomain deleted (molecular weight 68 kDa); made in house; host or cells: COS-1
T1 sequence (O43184 208-738 isoform O43184-2 E208G/T209S): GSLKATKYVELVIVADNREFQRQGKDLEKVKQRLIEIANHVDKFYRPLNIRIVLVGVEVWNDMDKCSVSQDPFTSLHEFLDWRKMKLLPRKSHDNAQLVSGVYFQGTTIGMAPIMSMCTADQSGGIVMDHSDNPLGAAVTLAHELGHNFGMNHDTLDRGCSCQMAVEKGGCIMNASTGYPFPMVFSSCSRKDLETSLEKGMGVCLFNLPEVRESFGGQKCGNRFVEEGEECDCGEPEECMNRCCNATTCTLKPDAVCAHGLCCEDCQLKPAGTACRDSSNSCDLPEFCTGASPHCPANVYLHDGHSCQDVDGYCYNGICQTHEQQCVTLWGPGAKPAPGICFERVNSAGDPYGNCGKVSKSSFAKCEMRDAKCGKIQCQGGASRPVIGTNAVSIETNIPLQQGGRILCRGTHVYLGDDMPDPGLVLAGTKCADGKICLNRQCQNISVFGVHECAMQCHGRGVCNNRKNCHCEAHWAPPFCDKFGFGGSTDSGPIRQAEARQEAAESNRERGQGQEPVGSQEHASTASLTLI
Experimental: Thrombin (Amersham Biosciences) was added to the purified meltrin α-STFLAG prepared in Example 5, and mixture was kept at 25° C. for 15 hours. When the solution after the reaction was examined by repeating the procedure of Example 5, the human meltrin α containing the prodomain (molecular weight 92 kDa) had been converted to mature meltrin α having the prodomain deleted (molecular weight 68 kDa). For measuring the enzymatic activity of the meltrin α, the solution after the prodomain cleavage with thrombin followed by inactivation of the thrombin by 10 mM APMSF (Wako Pure Chemical Industries, Ltd.) was used. The disappearance of the thrombin activity was confirmed by using the synthetic substrate for the thrombin on the reaction solution. […]
The anti-human meltrin α antibodies produced in Examples 6 and 7 were evaluated on their activity for inhibiting protease activity of meltrin α by using the protease activity assay system of Example 9. […] After the reaction, the reaction solution was electrophoresed by SDS-PAGE, and the rhIGF-BP3 was detected by western blotting.
According to the method of Example 9, activity of the low molecular weight compound for inhibiting protease activity of the meltrin α was assayed as described below. […] After the reaction, the reaction solution was electrophoresed by SDS-PAGE, and the rhIGF-BP3 was detected by western blotting.

Compound	accumulation of the neutral fat in the preadipocyte ([1]; 5 days after differentiation stimulation, compared to the sense sequence group)	suppression of level of expression of the meltrin α [2]	adipocyte proliferation and differentiation ([1]; 0.3 to 10 μg/mL, DMSO 0.2%)	cytotoxicity [3]	activity for inhibiting protease activity of meltrin α [4]
HS0307A: phosphorothioate antisense sequence CACGGGCAGCGGGCGCGCTGCCAT near the 5′ end of the coding region of human meltrin α (antisense dC*dA*dC*dG*dG*dG*dC*dA*dG*dC*dG*dG*dG*dC*dG*dC*dG*dC*dT*dG*dC*dC*dA*dT)	suppressed to a greater degree	about 70%	–	–	–
Oc1c(C(Nc2ccccn2)c2ccccc2)ccc2cccnc12 (centres unmarked) [M82463, 7-[phenyl(pyridine-2-ylamino)methyl]quinoline-8-ol]	–	–	suppressed the adipocyte proliferation and differentiation in a dose dependent manner	no cytotoxicity was found	suppressed the disappearance of the rhIGF-BP3

— patent publication US20080292619A1, “Pharmaceutical Composition Containing Meltrin Antagonist” (MOCHIDA PHARMACEUTICAL CO., LTD., priority 2004, published 2008)
